Source: ChEMBL document CHEMBL1268977, “Efficient synthesis, spectral analysis and antimicrobial studies of nitrogen and sulfur containing spiro heterocycles from 2,4-diaryl-3-azabicyclo[3.3.1]nonan-9-ones” (2010)
≈ marks a conversion by molar mass, not a printed value. Calls of active or inactive are those of the source. The rule behind the calls is not given here.

Key:
Staphylococcus aureus = assay: Antibacterial activity against Staphylococcus aureus ATCC 25930 after 24 hrs by serial dilution method; assay type: functional; details: ATCC 25930, 24 h
Bacillus subtilis [1] = assay: Antibacterial activity against Bacillus subtilis ATCC 530 after 24 hrs by serial dilution method; assay type: functional; details: ATCC 530, 24 h
Salmonella typhi = assay: Antibacterial activity against Salmonella typhi ATCC 25021 after 24 hrs by serial dilution method; assay type: functional, Salmonella enterica subsp. enterica serovar Typhi; details: Salmonella enterica, ATCC 25021, 24 h
Escherichia coli [2] = assay: Antibacterial activity against Escherichia coli ATCC 26032 after 24 hrs by serial dilution method; assay type: functional; details: ATCC 26032, 24 h
Klebsiella pneumoniae = assay: Antibacterial activity against Klebsiella pneumoniae ATCC 16425 after 24 hrs by serial dilution method; assay type: functional; details: ATCC 16425, 24 h
Candida albicans = assay: Antifungal activity against Candida albicans ATCC 3430 after 72 to 96 hrs by serial dilution method; assay type: functional
Cryptococcus neoformans = assay: Antifungal activity against Cryptococcus neoformans ATCC 3235 after 72 to 96 hrs by serial dilution method; assay type: functional
Rhizopus = assay: Antifungal activity against Rhizopus species ATCC 2842 after 72 to 96 hrs by serial dilution method; assay type: functional
Aspergillus flavus = assay: Antifungal activity against Aspergillus flavus ATCC 525 after 72 to 96 hrs by serial dilution method; assay type: functional
Aspergillus niger [3] = assay: Antifungal activity against Aspergillus niger ATCC 635 at 200 ug/ml after 72 to 96 hrs by serial dilution method; assay type: functional, organism-based
Aspergillus niger [4] = assay: Antifungal activity against Aspergillus niger ATCC 635 after 72 to 96 hrs by serial dilution method; assay type: functional
Escherichia coli [5] = assay: Antibacterial activity against Escherichia coli ATCC 26032 at 200 ug/ml after 24 hrs by serial dilution method; assay type: functional, organism-based
Bacillus subtilis [6] = assay: Antibacterial activity against Bacillus subtilis ATCC 530 at 200 ug/ml after 24 hrs by serial dilution method; assay type: functional, organism-based

Row | Structure (SMILES) | MIC (Staphylococcus aureus) [µg/mL] | MIC (Bacillus subtilis [1]) [µg/mL] | MIC (Salmonella typhi) [µg/mL] | MIC (Escherichia coli [2]) [µg/mL] | MIC (Klebsiella pneumoniae) [µg/mL] | MIC (Candida albicans) [µg/mL] | MIC (Cryptococcus neoformans) [µg/mL] | MIC (Rhizopus) [µg/mL] | MIC (Aspergillus flavus) [µg/mL] | inhibition (Aspergillus niger [3]) | MIC (Aspergillus niger [4]) [µg/mL] | inhibition (Escherichia coli [5]) | inhibition (Bacillus subtilis [6])
1 | CC(=O)NC1=NN(C(C)=O)C2(S1)C1CCCC2C(c2ccccc2Cl)NC1c1ccccc1Cl (stereo not given) | 12.5 (≈ 24.2 µM) | 12.5 (≈ 24.2 µM) | 12.5 (≈ 24.2 µM) | 12.5 (≈ 24.2 µM) | 25 (≈ 48.3 µM) | 12.5 (≈ 24.2 µM) | 50 (≈ 96.6 µM) | 12.5 (≈ 24.2 µM) | 12.5 (≈ 24.2 µM) | inactive | – | – | –
2 | CC(=O)NC1=NN(C(C)=O)C2(S1)C1CCCC2C(c2ccccc2)N(C(C)=O)C1c1ccccc1 (stereo not given) | 12.5 (≈ 25.5 µM) | 100 (≈ 204 µM) | 25 (≈ 51 µM) | 50 (≈ 102 µM) | 100 (≈ 204 µM) | 100 (≈ 204 µM) | 50 (≈ 102 µM) | 50 (≈ 102 µM) | 100 (≈ 204 µM) | – | 25 (≈ 51 µM) | – | –
3 | CCC(=O)NC1=NN(C(=O)CC)C2(S1)C1CCCC2C(c2ccc(F)cc2)NC1c1ccc(F)cc1 (stereo not given) | 25 (≈ 48.8 µM) | 6.25 (≈ 12.2 µM) | 6.25 (≈ 12.2 µM) | 12.5 (≈ 24.4 µM) | 25 (≈ 48.8 µM) | 6.25 (≈ 12.2 µM) | 25 (≈ 48.8 µM) | 6.25 (≈ 12.2 µM) | 6.25 (≈ 12.2 µM) | – | 12.5 (≈ 24.4 µM) | – | –
4 | COc1cccc(C2NC(c3cccc(OC)c3)C3CCCC2C32SC(NC(C)=O)=NN2C(C)=O)c1 (stereo not given) | 100 (≈ 197 µM) | 50 (≈ 98.3 µM) | – | 200 (≈ 393 µM) | 100 (≈ 197 µM) | 25 (≈ 49.2 µM) | 50 (≈ 98.3 µM) | 50 (≈ 98.3 µM) | 200 (≈ 393 µM) | – | 100 (≈ 197 µM) | inactive | –
5 | CCC(=O)NC1=NN(C(=O)CC)C2(S1)C1CCCC2C(c2ccccc2Cl)NC1c1ccccc1Cl (stereo not given) | 50 (≈ 91.7 µM) | 12.5 (≈ 22.9 µM) | 25 (≈ 45.8 µM) | 50 (≈ 91.7 µM) | 25 (≈ 45.8 µM) | 12.5 (≈ 22.9 µM) | 50 (≈ 91.7 µM) | 100 (≈ 183 µM) | 50 (≈ 91.7 µM) | – | 12.5 (≈ 22.9 µM) | – | –
6 | CCC(=O)NC1=NN(C(=O)CC)C2(S1)C1CCCC2C(c2ccccc2)N(C(=O)CC)C1c1ccccc1 (stereo not given) | 12.5 (≈ 23.5 µM) | 50 (≈ 93.9 µM) | 25 (≈ 46.9 µM) | 50 (≈ 93.9 µM) | 50 (≈ 93.9 µM) | 50 (≈ 93.9 µM) | 6.25 (≈ 11.7 µM) | 12.5 (≈ 23.5 µM) | 12.5 (≈ 23.5 µM) | – | 50 (≈ 93.9 µM) | – | –
7 | CCC(=O)NC1=NN(C(=O)CC)C2(S1)C1CCCC2C(c2ccc(Cl)cc2)NC1c1ccc(Cl)cc1 (stereo not given) | 200 (≈ 367 µM) | 12.5 (≈ 22.9 µM) | 12.5 (≈ 22.9 µM) | 25 (≈ 45.8 µM) | 100 (≈ 183 µM) | 12.5 (≈ 22.9 µM) | 25 (≈ 45.8 µM) | 12.5 (≈ 22.9 µM) | 50 (≈ 91.7 µM) | – | 12.5 (≈ 22.9 µM) | – | –
8 | CC(=O)NC1=NN(C(C)=O)C2(S1)C1CCCC2C(c2ccc(Cl)cc2)NC1c1ccc(Cl)cc1 (stereo not given) | 25 (≈ 48.3 µM) | – | 25 (≈ 48.3 µM) | 12.5 (≈ 24.2 µM) | 50 (≈ 96.6 µM) | 25 (≈ 48.3 µM) | 6.25 (≈ 12.1 µM) | 200 (≈ 386 µM) | 50 (≈ 96.6 µM) | – | 25 (≈ 48.3 µM) | – | inactive
9 | CCC(=O)N(C1=NN(C(=O)CC)C2(S1)C1CCCC2C(c2ccccc2Cl)NC1c1ccccc1Cl)c1ccccc1 (stereo not given) | 6.25 (≈ 10.1 µM) | 50 (≈ 80.4 µM) | 25 (≈ 40.2 µM) | 50 (≈ 80.4 µM) | 25 (≈ 40.2 µM) | 50 (≈ 80.4 µM) | 200 (≈ 322 µM) | 100 (≈ 161 µM) | 50 (≈ 80.4 µM) | – | 50 (≈ 80.4 µM) | – | –
10 | CN[C@@H]1[C@H](O[C@H]2[C@H](O[C@H]3[C@H](O)[C@@H](O)[C@H](N=C(N)N)[C@@H](O)[C@@H]3N=C(N)N)O[C@@H](C)[C@]2(O)C=O)O[C@@H](CO)[C@H](O)[C@H]1O [STREPTOMYCIN] | 50 (≈ 86 µM) | 12.5 (≈ 21.5 µM) | 50 (≈ 86 µM) | 12.5 (≈ 21.5 µM) | 25 (≈ 43 µM) | – | – | – | – | – | – | – | –
11 | CC(=O)NC1=NN(C(C)=O)C2(S1)C1CCCC2C(c2ccc(F)cc2)NC1c1ccc(F)cc1 (stereo not given) | 50 (≈ 103 µM) | 6.25 (≈ 12.9 µM) | 6.25 (≈ 12.9 µM) | 12.5 (≈ 25.8 µM) | 12.5 (≈ 25.8 µM) | 6.25 (≈ 12.9 µM) | 12.5 (≈ 25.8 µM) | 50 (≈ 103 µM) | 6.25 (≈ 12.9 µM) | – | 6.25 (≈ 12.9 µM) | – | –
